We go through ten compounds from publication PMC8566451, “Lead optimization of novel quinolone chalcone compounds by a structure–activity relationship (SAR) study to increase efficacy and metabolic stability” (Scientific Reports, 2021).

Holding throughout (assay type): cell-based
The subject of one test is MCF7. Briefly: Sulforhodamine B (SRB) assay. The following applies: Homo sapiens, MCF7; Supplementary Table S1, SRB. The procedure: (§1) The human MDA-MB-231, MCF7, MDA-MB-468, RPMI-8226 and HeLa cell lines were purchased from ATCC and maintained in Dulbecco's Modified Eagle Medium (DMEM)—high glucose supplemented with 10% fetal bovine serum (FBS) and antibiotics/antimycotics. Cell line authentication was carried out by Genetica DNA Laboratories (Burlington, NC) using a short tandem repeat (STR) profiling method (March 2015; July 2015; September 2016). Melanoma cells E-055 (MZ-Mel-3), E-097 (Mel-SOE), E-112 (UKRV-Mel-38), E-157 (UKRV-Mel-17) were obtained from the European Searchable Tumour Line Database (ESTDAB) cell bank (a kind gift of Dr. Graham Pawelec, Tubingen University, Germany). MDA-MB-435 was purchased from the Division of Cancer Treatment and Diagnosis Tumor Repository. All melanoma cells were cultured in Roswell Park Memorial Institute (RPMI) medium supplemented with 10% FBS and P/S/antimycotics. Primary human epidermal melanocytes from normal adult abdominal skin were purchased from ATCC (cat # PCS-200–013) and Cell Applications (cat#104-05a). The melanocytes were cultured in the media supplied by the companies.
(§2) The SRB assay was used to assess drug-induced cytotoxicity and cell proliferation as previously described[2],[33],[34] with a few modifications. Briefly, cells were plated 10,000 to 25,000 cells/cm^2 in 96-well plates (100 µl medium) and allowed to adhere overnight. The cell counts were different for each cell line to ensure optimal cell growth for the duration of the assay. Eight different concentrations of compound solutions using 2–4 times serial dilutions (100 µl). Cells were then incubated for an additional 48 h and then fixed with 100 µl ice-cold 10% (w/v) trichloroacetic acid (TCA) (without removing the cell medium, final concentration, 3.3% of TCA) and stained with 0.4% SRB (w/v) in 1% acetic acid (v/v). The relative growth rate (%) was calculated for each of the compound concentrations according to the following formula: 100 * (T − T0)/(C − T0), in which T is the optical density (OD) after exposure to a certain concentration of the compound after 48 h, T0 is the OD at the start of drug exposure (time zero) and C is the control growth. The GI50 for each compound was obtained from a non-linear sigmoidal dose–response (variable slope) curve fitted by GraphPad Prism v.4.03 software.
(The SRB assay estimates cell density from bound dye.)

In another test the test system is MDA-MB231. Description: Sulforhodamine B (SRB) assay. Particulars: Homo sapiens, MDA-MB-231; Supplementary Table S1, SRB. The procedure:
as §1, §2

The subject of the next test is HeLa. Briefly: Sulforhodamine B (SRB) assay. Particulars: Homo sapiens, HeLa; Supplementary Table S1, SRB. As for the experimental part: as §1, §2
The subject of a further test is RPMI-8226. Briefly: Sulforhodamine B (SRB) assay. The following applies: Homo sapiens, Supplementary Table S1, SRB. The procedure: as §1, §2
In test [1] the test system is cancer cell lines (breast cancer, melanoma, cervical cancer). Briefly: SRB assay, average GI50 over cancer cell lines. The following applies: average over the cell lines of Table 1 or Supplemental Table S1; read-out: average GI50. The procedure:
as §2

Usually IC50 stands for the concentration at which inhibition is half-maximal. A high value points to weaker potency. Usually GI50 stands for the concentration at which growth is held to half of that of the control. On to `COc1cc2cc(/C=C/C(=O)c3ccccc3OC)c(=O)[nH]c2cc1OC` [CTR-24, (E)-6,7-dimethoxy-3-(3-(2-methoxyphenyl)-3-oxoprop-1-enyl)quinolin-2(1H)-one], for which the IC50 with MCF7 turned out to be 1540 ± 360 nM; in the test on MDA-MB231, 2020 ± 10 nM; in the test with HeLa it was 1340 ± 200 nM; in the test on RPMI-8226, 1040 ± 130 nM. Moreover, the GI50 in test [1] came to 1500 nM.
For `COc1cccc(OC)c1C(=O)/C=C/c1cc2ccccc2[nH]c1=O` [CTR-25, (E)-3-(3-(2,6-dimethoxyphenyl)-3-oxoprop-1-enyl)quinolin-2(1H)-one], in that order: 1690 ± 70 nM, 2600 ± 180 nM, 1320 ± 20 nM, 770 ± 210 nM and 1600 nM.
The corresponding values for `COc1ccc(OC)c(C(=O)/C=C/c2cc3ccccc3[nH]c2=O)c1` [CTR-26, (E)-3-(3-(2,5-dimethoxyphenyl)-3-oxoprop-1-enyl)quinolin-2(1H)-one] are 320 ± 10 nM, 960 ± 150 nM, 290 ± 20 nM, 200 ± 30 nM and 443 nM.
With `COc1ccc(C(=O)/C=C/c2cc3ccccc3[nH]c2=O)c(OC)c1` [CTR-27, (E)-3-(3-(2,4-dimethoxyphenyl)-3-oxoprop-1-enyl)quinolin-2(1H)-one], the IC50 in the test with MCF7 turned out to be 2200 ± 350 nM; in the test with MDA-MB231, 2690 ± 240 nM; in the test with HeLa, 1800 ± 270 nM; in the test on RPMI-8226, 770 ± 100 nM.
As to `COc1ccc(F)cc1C(=O)/C=C/c1cc2ccccc2[nH]c1=O` [CTR-29, (E)-3-(3-(5-fluoro-2-methoxyphenyl)-3-oxoprop-1-enyl)quinolin-2(1H)-one], the IC50 stood at 100 ± 10 nM in the test with MCF7, 210 ± 20 nM in the test with MDA-MB231, 90 ± 20 nM in the test on HeLa and 70 ± 10 nM in the test on RPMI-8226. Further, the GI50 in test [1] is 118 nM.
For the compound `COc1cc(F)ccc1C(=O)/C=C/c1cc2ccccc2[nH]c1=O` [CTR-30, (E)-3-(3-(4-fluoro-2-methoxyphenyl)-3-oxoprop-1-enyl)quinolin-2(1H)-one], the IC50 with MCF7 turned out to be 1470 ± 150 nM; in the test with MDA-MB231, 1420 ± 80 nM; with HeLa, 1500 ± 130 nM; in the test with RPMI-8226, 200 ± 30 nM.
`COc1ccc(OC)c(C(=O)/C=C/c2cc3cc(OC)ccc3[nH]c2=O)c1` [CTR-34, (E)-3-(3-(2,5-dimethoxyphenyl)-3-oxoprop-1-enyl)-6-methoxyquinolin-2(1H)-one]: the IC50 was determined as 850 ± 60 nM in the test on MCF7, 840 ± 80 nM in the test with MDA-MB231, 640 ± 30 nM with HeLa and 260 ± 20 nM in the test with RPMI-8226. The GI50 in test [1] turned out to be 648 nM.
The corresponding values for `COc1ccc(C(=O)/C=C/c2cc3cc(OC)ccc3[nH]c2=O)c(OC)c1` [CTR-35, (E)-3-(3-(2,4-dimethoxyphenyl)-3-oxoprop-1-enyl)-6-methoxyquinolin-2(1H)-one] are 2120 ± 360 nM, 2350 ± 260 nM, 2070 ± 250 nM, 1320 ± 100 nM and 2000 nM.
For `COc1ccc2[nH]c(=O)c(/C=C/C(=O)c3ccc(OC(F)(F)F)cc3OC)cc2c1` [CTR-36, (E)-6-methoxy-3-(3-(2-methoxy-4-(trifluoromethoxy)phenyl)-3-oxoprop-1-enyl)quinolin-(1H)-one], in that order: 1230 ± 80 nM, 730 ± 60 nM, 1110 ± 130 nM, 150 ± 20 nM and 805 nM.
As for `COc1ccc2[nH]c(=O)c(/C=C/C(=O)c3cc(F)ccc3OC)cc2c1` [CTR-37, (E)-3-(3-(5-fluoro-2-methoxyphenyl)-3-oxoprop-1-enyl)-6-methoxyquinolin-2(1H)-one], the IC50 was 320 ± 40 nM with MCF7, 390 ± 90 nM in the test with MDA-MB231, 140 ± 30 nM in the test on HeLa and 100 ± 30 nM in the test with RPMI-8226.
